Source: patent publication US20230009608A1, “GRK2 INHIBITORS AND USES THEREOF” (Cygnal Therapeutics, Inc., priority 2020, published 2023)

Assays:
GRK2 [1] = biological target: T1, GRK2 (Homo sapiens, UniProt P25098); assay: GRK2 Inhibition Assay (TR-FRET, Example 7); type: biochemical
T1 construct: purchased SignalChem A14-10G
T1 sequence (P25098 1-689): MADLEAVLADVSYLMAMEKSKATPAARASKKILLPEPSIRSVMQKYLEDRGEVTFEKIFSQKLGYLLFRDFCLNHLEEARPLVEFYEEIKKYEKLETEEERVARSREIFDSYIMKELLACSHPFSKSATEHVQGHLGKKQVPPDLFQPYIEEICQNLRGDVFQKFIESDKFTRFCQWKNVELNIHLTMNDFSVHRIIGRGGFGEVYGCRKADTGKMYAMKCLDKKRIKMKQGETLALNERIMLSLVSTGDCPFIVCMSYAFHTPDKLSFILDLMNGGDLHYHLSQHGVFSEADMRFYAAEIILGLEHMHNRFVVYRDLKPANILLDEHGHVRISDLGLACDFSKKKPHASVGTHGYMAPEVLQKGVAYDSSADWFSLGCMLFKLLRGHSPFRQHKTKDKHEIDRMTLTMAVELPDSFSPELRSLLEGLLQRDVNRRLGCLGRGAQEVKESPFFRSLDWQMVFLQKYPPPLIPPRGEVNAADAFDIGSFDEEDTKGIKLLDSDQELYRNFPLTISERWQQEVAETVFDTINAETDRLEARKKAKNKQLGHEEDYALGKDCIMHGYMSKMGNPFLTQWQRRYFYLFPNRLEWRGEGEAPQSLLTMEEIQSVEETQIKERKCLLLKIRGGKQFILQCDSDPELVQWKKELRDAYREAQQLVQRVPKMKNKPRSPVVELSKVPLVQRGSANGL
Protocol: Enzyme GRK2 (1 nM final concentration) was diluted in 25 mMv HEPES, 10 mM MgCl2, 2 mM DTT, 0.01% Tween-20, and 1 mM EGTA. Then the GRK2 mixture was added into ProxiPlate-384 white plate and pre-incubated for 30 min with test compounds at room temperature. ATP (7 μM final concentration) and Ulight TopoIIα (50 nM final concentration) were added into the assay plate to initiate the reaction and the mixture was incubated at room temperature for 90 min. Then, Eu anti-TopoIIα (0.12 nM final concentration), BSA (0.01% final concentration), and EDTA (11 mMv final concentration) in LANCE assay buffer were added into each well. After 60 min incubation time at room temperature, TR-FRET signal was measured by EnVision plate reader.

[2] = test system: PAXF1657 control empty vector cell line; assay: 7-day proliferation assay, PAXF1657 control empty vector cell line (Example 9); type: cell-based; conditions: 168 h; Cell Line: PAXF1657 empty vector (EV) cell line; 7-day; read-out: C: 7-day proliferation assay: IC50 GeoMean
Procedure, shortened: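 PAXF1657 isogenic lines (GRK2-overexpressing vs empty vector; CRISPR GRK2 knockout vs non-targeting control clones) seeded 500 cells/well in RPMI1640/10% FBS and treated next day with 10-point dilutions, 30 μM-0.0002 μM final, 0.3% DMSO. Media with compound refreshed after 3 days; viability read by CellTiter-Glo luminescence at day 7.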

GRK2 [3] = biological target: T1, GRK2; assay: ADPGlo GRK2 Inhibition Assay (Example 8); type: biochemical; conditions: read-out: A: Enzymatic GRK2: IC50 (nM) (Example 8)
Procedure, shortened: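 GRK2 (15 nM 2× enzyme solution) was preincubated 15 min with compound, then reacted 180 min at room temperature with 2× mix of 20 μM ATP plus GRKtide in HEPES pH 7.5, MgCl2, Tween-20, DTT. ADP was detected by ADP-Glo luminescence. Percent inhibition was normalised to enzyme and no-enzyme controls, with dose-response curves from threefold dilutions starting at 100 μM.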

[4] = TR-FRET GRK2 enzyme assay, read-out: B: Enzymatic GRK2: IC50 (nM) (Example 7)
[5] = Enzyme Assay B, TR-FRET (Example 7), read-out: B: Enzymatic GRK2: IC50 (nM) (Example 7)
[6] = Enzyme Assay A, ADPGlo (Example 8)

| IC50 (GRK2 [1]; [5]) [nM] | Structure (SMILES) | IC50 [2] [µM] | further results |
| --- | --- | --- | --- |
| < 0.51 | O=C(N[C@H]1COc2ccccc21)c1cccc(NCc2nnc(-c3ccncn3)n2CCO)c1 | 0.107 | – |
| 1.4 | COc1cccc(OC)c1CNC(=O)c1cccc(NCc2nnc(-c3ccncc3)[nH]2)c1 | 0.981 | – |
| 1900 | Cn1c(CNc2cccc(C(=O)N[C@@H]3CCOc4cc(F)ccc43)c2)nnc1-c1ccncn1 | 0.168 | – |
| 4.6 | Cc1ccc2c(c1)[C@H](NC(=O)c1cccc(NCc3nnc(-c4ccncn4)n3C)c1)CCO2 | 0.196 | – |
| 30 | Cn1c(CNc2cccc(C(=O)N[C@H]3CC(C)(C)Oc4ccccc43)c2)nnc1-c1ccncn1 | > 30 | – |
| 2 | CCCn1c(CNc2cccc(C(=O)NCc3cccc4c3OCC4)c2)nnc1-c1ccncn1 | > 30 | – |
| 45 | Cn1c(CNc2cccc(C(=O)N[C@@H]3CC(C)(C)Oc4ccccc43)c2)nnc1-c1ccncn1 | 9.09 | – |
| 4.2 | O=C(NCc1cccc2c1OCC2)c1cccc(NCc2nnc(-c3ccncn3)n2CCCO)c1 | 14.5 | – |
| 3.5 | O=C(NCc1cccnc1C(F)(F)F)c1cccc(NCc2nnc3n2CCOc2cnccc2-3)c1 | 6.57 | – |
| 3.1 | CCCn1c(CNc2cccc(C(=O)NCc3c(OC)cccc3OC)c2)nnc1-c1ccncn1 | > 30 | – |
| 23 | COc1cccc(OC)c1CNC(=O)c1cccc(NCc2nnc(-c3ccncc3)n2CCO)c1 | > 30 | – |
| 19 | CCOc1ccccc1CNC(=O)c1cccc(NCc2nnc(-c3ccncc3)n2CCO)c1 | 6.31 | – |
| > 10000 | CN(Cc1cccnc1C(F)(F)F)C(=O)c1cccc(NCc2nnc(-c3ccncn3)n2C)c1 | – | – |
| 5.5 | CCc1cnccc1CNC(=O)c1cccc(NCc2nnc(-c3ccncn3)n2CCCO)c1 | – | – |
| 280 | CNCCCn1c(CNc2cccc(C(=O)NCc3cccnc3C(F)(F)F)c2)nnc1-c1ccncn1 | – | – |
| 1400 | CNCCn1c(CNc2cccc(C(=O)NCc3c(F)cccc3F)c2)nnc1-c1ccncn1 | – | – |

More lines, now with the values behind:

| Structure (SMILES) | IC50 (GRK2 [1]; [5]) [nM] | IC50 [2] [µM] | further results |
| --- | --- | --- | --- |
| O=C(NCCc1cccc(OS(=O)(=O)F)c1)c1cccc(NCc2nnc(-c3ccncc3)[nH]2)c1 | – | – | IC50 (GRK2 [1]): 210 nM |
| CCc1cnccc1CNC(=O)c1cccc(NCc2nnc(-c3ccncn3)n2[C@H]2CC[C@@H](NC)C2)c1 | – | – | IC50 (GRK2 [1]; [4]): 190 nM |
| CCCn1c(CNc2cccc(C(=O)NCc3cccnc3C(F)(F)F)c2)nnc1-c1ccncn1 | 2.6 | 0.667 | – |
| O=C(NCc1cccc(OS(=O)(=O)F)c1)c1cccc(NCc2nnc(-c3ccncc3)n2CCCO)c1 | – | > 30 | IC50 (GRK2 [1]): 50 nM |
| Cn1c(CNc2cccc(C(=O)N[C@H](C#N)c3ccccc3Br)c2)nnc1-c1ccncn1 | – | – | IC50 (GRK2 [1]; [4]): 4.5 nM |
| CCc1cnccc1CNC(=O)c1cccc(NCc2nnc(-c3ccncn3)n2[C@H]2CCC[C@@H](NC)C2)c1 | – | – | IC50 (GRK2 [1]; [4]): 3900 nM |
| Cn1c(CNc2cccc(C(=O)N[C@H](C#N)c3c(F)cccc3Cl)c2)nnc1-c1ccncn1 | – | – | IC50 (GRK2 [1]; [4]): 5.7 nM |
| O=C(NC1(c2ccccc2)CCOCC1)c1cccc(NCc2nnc(-c3ccncc3)n2CCO)c1 | 130 | – | – |
| Cn1c(CNc2cccc(C(=O)N[C@H](C#N)c3ccc(F)cc3F)c2)nnc1-c1ccncn1 | – | 0.122 | IC50 (GRK2 [1]; [4]): 4.9 nM |
| CCc1cnccc1CNC(=O)c1cccc(NCc2nnc(-c3ccncn3)n2CCO)c1 | 0.82 | – | – |
| CNCCCn1c(CNc2cccc(C(=O)NCc3c(F)cccc3F)c2)nnc1-c1ccncn1 | 660 | – | – |
| CCc1cnccc1CNC(=O)c1cccc(NCc2nnc(-c3ccncc3Cl)n2C)c1 | 79 | > 30 | – |
| Cn1c(CNc2cccc(C(=O)N[C@H]3CCOc4c(Br)cccc43)c2)nnc1-c1ccncn1 | 3.6 | > 30 | – |
| O=C(NCc1cccnc1C(F)(F)F)c1cccc(NCc2nnc(-c3ccncn3)n2CCCO)c1 | 5.8 | > 30 | – |
| COc1ncccc1CNC(=O)c1cccc(NCc2nnc3n2CCOc2cnccc2-3)c1 | 7.5 | > 30 | – |
| O=C(NC1(c2ccccc2)CCOCC1)c1cccc(NCc2nnc(-c3ccncn3)n2CCO)c1 | 6.3 | – | – |
| Cn1c(CNc2cccc(C(=O)N[C@@H](C#N)c3c(F)cccc3Cl)c2)nnc1-c1ccncn1 | – | – | IC50 (GRK2 [1]; [4]): 5.1 nM |
| Cn1c(CNc2cccc(C(=O)N[C@H]3COc4ccccc43)c2)nnc1-c1ccncn1 [drawing 850] | – | – | IC50 (GRK2 [1]; [4]): 3.4 nM |
| Cn1c(CNc2cccc(C(=O)N[C@H]3CCOc4ccccc43)c2)nnc1-c1ccncc1Cl | 170 | – | – |
| Cn1c(CNc2cccc(C(=O)N[C@H]3CCOc4ccc(F)cc43)c2)nnc1-c1ccncn1 | 24 | > 30 | – |
| Cn1c(CNc2cccc(C(=O)N[C@@H](C#N)c3ccccc3C(F)(F)F)c2)nnc1-c1ccncn1 | – | – | IC50 (GRK2 [1]; [4]): 3.5 nM |
| Cn1c(CNc2cccc(C(=O)N[C@H]3COc4c(Cl)cccc43)c2)nnc1-c1ccncn1 | – | – | IC50 (GRK2 [1]; [4]): 7.8 nM |
| O=C(N[C@H]1CCOc2ccccc21)c1cccc(NCc2nnc3n2CCOc2cnccc2-3)c1 | 2.6 | > 30 | – |

| Structure (SMILES) | IC50 (GRK2 [1]; [5]) [nM] | IC50 [2] [µM] | further results |
| --- | --- | --- | --- |
| O=C(NCc1cccc(F)c1)c1cccc(NCc2nnc(-c3ccncc3)n2CCO)c1 | 9.2 | > 30 | – |
| Cn1c(CNc2cc(C(=O)NCc3cccc4c3OCC4)ccn2)nnc1-c1ccncn1 | 12 | – | – |
| O=C(NCc1c(F)cccc1F)c1cccc(NCc2nnc(-c3ccncn3)n2CCCO)c1 | 47 | – | – |
| CCc1cnccc1CNC(=O)c1cccc(NCc2nnc(-c3ccncn3)n2[C@@H]2CC[C@H](NC)C2)c1 | – | – | IC50 (GRK2 [1]; [4]): 110 nM |
| COc1ncccc1CNC(=O)c1cccc(NCc2nnc(-c3ccncn3)n2CCO)c1 | 2.4 | – | – |
| Cn1c(CNc2cccc(C(=O)N[C@@H](C#N)c3ccccc3Br)c2)nnc1-c1ccncn1 | – | – | IC50 (GRK2 [1]; [4]): 4.1 nM |
| CNc1cc(-c2nnc(CNc3cccc(C(=O)NCc4c(F)cccc4F)c3)n2C)ncn1 | 4400 | – | – |
| Cn1c(CNc2cccc(C(=O)N[C@@H]3COc4c(Cl)cccc43)c2)nnc1-c1ccncn1 | – | – | IC50 (GRK2 [1]; [4]): 28 nM |
| CCc1cnccc1CNC(=O)c1cccc(NCc2nnc(-c3ccncn3)n2[C@@H]2CCC[C@@H](NC)C2)c1 | – | – | IC50 (GRK2 [1]; [4]): 1000 nM |
| COc1ccc([C@H](C#N)NC(=O)c2cccc(NCc3nnc(-c4ccncn4)n3C)c2)c(OC)c1 | – | – | IC50 (GRK2 [1]; [4]): 68 nM |
| O=C(NC1(c2ccccc2)CCOCC1)c1cccc(NCc2nnc(-c3ccncc3)[nH]2)c1 | 330 | – | – |
| CN(C)CCCn1c(CNc2cccc(C(=O)NCc3c(F)cccc3F)c2)nnc1-c1ccncn1 | 170 | – | – |
| COc1ccc([C@@H](C#N)NC(=O)c2cccc(NCc3nnc(-c4ccncn4)n3C)c2)c(OC)c1 | – | – | IC50 (GRK2 [1]; [4]): 7.8 nM |
| CCc1cnccc1CNC(=O)c1cccc(NCc2nnc(-c3ccncn3)n2[C@@H]2CC[C@@H](NC)C2)c1 | – | – | IC50 (GRK2 [1]; [4]): 230 nM |
| CCc1cnccc1CNC(=O)c1ccnc(NCc2nnc(-c3ccncn3)n2C)c1 | 15 | – | – |
| CCc1cnccc1CNC(=O)c1cccc(NCc2nnc(-c3ccncn3)n2[C@H]2CC[C@H](NC)C2)c1 | – | – | IC50 (GRK2 [1]; [4]): 920 nM |
| COc1ccccc1[C@H](NC(=O)c1cccc(NCc2nnc(-c3ccncn3)n2C)c1)c1nccn1C | – | – | IC50 (GRK2 [1]; [4]): 100 nM |
| CN(C)S(=O)(=O)c1ccccc1CNC(=O)c1cccc(NCc2nnc(-c3ccncn3)n2C)c1 | – | 21.5 | IC50 (GRK2 [3]; ADPGlo GRK2 enzyme assay): 47.2 nM |
| O=C(N[C@@H]1COc2cc(F)ccc21)c1cccc(NCc2nnc(-c3ccncc3)n2CCO)c1 | – | 3.13 | IC50 (GRK2 [3]; [6]): 4.8 nM |
| Cn1c(CNc2cccc(C(=O)N[C@@H]3COCc4c(Cl)cccc43)c2)nnc1-c1ccncc1F | – | > 30 | IC50 (GRK2 [3]; [6]): 60.4 nM |
| Cn1c(CNc2cc(C(=O)N[C@H]3COc4cc(F)ccc43)ccn2)nnc1-c1ccncn1 | – | 1.93 | IC50 (GRK2 [3]; ADPGlo GRK2 enzyme assay): 118 nM |
| COc1ncc(Br)cc1CNC(=O)c1cccc(NCc2nnc(-c3ccncc3)[nH]2)c1 | – | 21.7 | IC50 (GRK2 [3]; ADPGlo GRK2 enzyme assay): 10.2 nM |
| Cc1ccc2c(c1)OCC[C@@H]2NC(=O)c1cccc(NCc2nnc(-c3ccncn3)n2C)c1 | – | 2.58 | IC50 (GRK2 [3]; [6]): > 1000 nM |
